Literature values in PMC2365120, “Antitumour Metallocenes: Effect of DMSO on the Stability of Cp2TiX2 and Implications for Anticancer Activity” (Metal-Based Drugs, 1998).
Like-named read-outs stand apart in the source and are kept apart here.

Legend:
[1] = samples administered in 10%DMSO/saline
[2] = for % Cp hydrolysis: Table 3, D2O (pD ~2-3), reaction time 24 h
[3] = tested on: fluid Ehrlich ascites tumour; conditions: for Optimum Cure Rate (%) / Optimum dose range: fluid Ehrlich ascites tumour, samples administered in 10%DMSO/saline

Row | Structure (SMILES) | LD50 ([1]; Table 1, Cp2TiX2) [mg/kg] | Optimum Cure Rate (%) ([3]; Table 1, Cp2TiX2) | Optimum dose range ([3]; Table 1, Cp2TiX2) | other results
1 | [Cl-].[Cl-].[Ti+4].c1cc[cH-]c1.c1cc[cH-]c1 [Compound 1, Titanocene dichloride, reference compound] | 100 | 100 | 40-60 mg/kcj | % Cp hydrolysis [2]: 0%; Time the Cp rings remain metal bound ([2]; in water, low pH after halide hydrolysis): over 24 h
2 | [F][Ti+2][F].c1cc[cH-]c1.c1cc[cH-]c1 [Compound 2] | 60 | 100 | 40 mg/kcj | –
3 | [Br][Ti+2][Br].c1cc[cH-]c1.c1cc[cH-]c1 [Compound 3] | 135 | 100 | – | –
4 | [I][Ti+2][I].c1cc[cH-]c1.c1cc[cH-]c1 [Compound 4] | 145 | 100 | 60-100 mg/kcj | –
5 | S=C=[N][Ti+2][N]=C=S.c1cc[cH-]c1.c1cc[cH-]c1 [Compound 5] | 135 | 100 | 80 mg/kcj | –
6 | O=C(O)C(Cl)(Cl)Cl.O=C(O)C(Cl)(Cl)Cl.[Ti+2].c1cc[cH-]c1.c1cc[cH-]c1 [Compound 8, titanocene bis(trichloroacetate)] | 440 | 100 | 100-360 mg/kcj | Aqueous solubility: poor
7 | O=C(O)/C=C\C(=O)[O][Ti+2][O]C(=O)/C=C\C(=O)O.c1cc[cH-]c1.c1cc[cH-]c1 [Compound 9] | 170 | 100 | 60-120 mg/kcj | Aqueous solubility: increase in aqueous solubility
8 | O=[N+]([O-])c1ccc([O][Ti+2][O]c2ccc([N+](=O)[O-])cc2)cc1.c1cc[cH-]c1.c1cc[cH-]c1 [Compound 10] | 260 | 10 | 180-240 mg/kcj | –
9 | Fc1c(F)c(F)c([O][Ti+2][O]c2c(F)c(F)c(F)c(F)c2F)c(F)c1F.c1cc[cH-]c1.c1cc[cH-]c1 [Compound 11] | 480 | 100 | 340-360 mg/kcj | –
10 | Fc1c(F)c(F)c([S][Ti+2][S]c2c(F)c(F)c(F)c(F)c2F)c(F)c1F.c1cc[cH-]c1.c1cc[cH-]c1 [Compound 12] | 260 | 100 | 120-180 mg/kcj | –
11 | [Cl-].[Cl-].[NH3+]CC(=O)[O][Ti+2][O]C(=O)C[NH3+].c1cc[cH-]c1.c1cc[cH-]c1 [Compound 13, titanocene bis(glycine)] | > 160 | 50 | – | % Cp hydrolysis [2]: < 2%
12 | C[C@H]([NH3+])C(=O)[O][Ti+2][O]C(=O)[C@H](C)[NH3+].[Cl-].[Cl-].c1cc[cH-]c1.c1cc[cH-]c1 [Compound 14] | 185 | 50 | 160 mg/kcj | Aqueous solubility: highly water soluble
13 | [Cl][Ti+2][O]c1ccc(Cl)c(Cl)c1Cl.c1cc[cH-]c1.c1cc[cH-]c1 [Compound 15] | – | – | – | LD50 ([1]; Table 2, Cp2TiClX): 200 mg/kg; Optimum Cure Rate (%) ([3]; Table 2, Cp2TiClX): 50%; Optimum dose range ([3]; Table 2, Cp2TiClX): 60 to 140 mg/kg
14 | Cc1ccccc1[S][Ti+2][Cl].c1cc[cH-]c1.c1cc[cH-]c1 [Compound 16] | – | – | – | Optimum Cure Rate (%) ([3]; Table 2, Cp2TiClX): 25%; Optimum dose range ([3]; Table 2, Cp2TiClX): 30 to 60 mg/kg
15 | Nc1ccccc1[S][Ti+2][Cl].c1cc[cH-]c1.c1cc[cH-]c1 [Compound 17] | – | – | – | LD50 ([1]; Table 2, Cp2TiClX): 100 mg/kg; Optimum Cure Rate (%) ([3]; Table 2, Cp2TiClX): 13%
16 | [Cl][Ti+]([Cl])[Cl].c1cc[cH-]c1 [CpTiCI3, reference compound] | – | – | – | Antitumour activity ([3]; partially hydrolysed derivative lacking one Cp ring): reduced activity
